Data: patent US20140377365A1, “SUSTAINED-RELEASE FORMULATION OF ROTIGOTINE” (MAP Pharmaceuticals, Inc., priority 2013, published 2014)

Test: In situ rotigotine salt screening (precipitate formation in ethanol/HFA 227 solution formulation)
Type: physicochemical
Details: for Observation, Immediate / Observation, 1 week at RT / Observation, 1 week at 5° C.: 1 mg/mL rotigotine free base plus acid in 10% (w/w) ethanol in HFA 227; for Observation, Immediate: immediately upon preparation; for Observation, 1 week at RT: stored 1 week at room temperature; for Observation, 1 week at 5° C.: another week at 5° C. after 1 week at RT
Experimental: Rotigotine, bulk drug substance, was purchased from Chemagis (Perrigo API). A stock solution of rotigotine was prepared by dissolving rotigotine particles in ethanol at 10 mg/mL. With 1.5 mL rotigotine stock solution added to formulation bottles, each formulation bottle contained 15 mg rotigotine. For preparation of acid stock solutions, it was assumed that complete reaction or ion-pairing between rotigotine and acid. Based on the molecular weight and number of anions of each acid as listed in Table 1, acids stock solutions were prepared by dissolving the required amount in ethanol.
Each formulation bottle was filed with 1.5 mL of rotigotine stock solution and 1.0 ml, of acid stock solution. The formulation bottles (PET bottles) were then sealed with continuous valves and vortexed for 30 seconds to mix the solution well. Finally, 17.6 g of 1,1,1,2,3,3,3-heptafluoropropane (HFA227 (Mexichem)) to make a final volume of 15 mL of rotigotine formulation. All the bottles were hand shaken for 10 seconds.
All in situ salt screening samples were made as 1 mg/mL of rotigtine free base in 10% (w/w) ethanol in HFA 227. Acids corresponding to the salt forms in Table 1 were added according to the molar ratio with rotigotine for complete reaction. As 1 mg/mL was the minimal required dose at the time of experiment, all formulations were tested at this level to screen out non-solution salt formulations.
These were the rotigotine citrate, fumarate, succinate, sulfate, tartrate, xinafoate salt formulations. […] rotigotine salt formulations were immediately ruled out as the precipitate formation was not desired. All clear solution samples were stored at room temperature (RT) for 1 week. […] These were rotigotine acetate, benzoate and mesylate salt formulations. These 3 rotigotine salt formulations were also ruled out as precipitate formation is not desired. The rest of the samples remained as clear solutions (stable) at after another week at 5° C.

Molecule | Observation, Immediate | Observation, 1 week at RT | Observation, 1 week at 5° C. | Solution formulation at the minimum required concentration (1 mg/mL, 10% (w/w) ethanol in HFA 227)
CC(=O)O.CCCN(CCc1cccs1)[C@H]1CCc2c(O)cccc2C1 [Acetate, rotigotine acetate] | solution | red precipitate | – | –
CC(O)C(=O)O.CCCN(CCc1cccs1)[C@H]1CCc2c(O)cccc2C1 [Lactate, rotigotine lactate] | solution | solution | solution | –
O=S(=O)(O)O [Sulfate] | white precipitate | – | – | –
Benzoate | solution | red precipitate | – | –
Fumarate | white precipitate | – | – | –
Tartrate | white precipitate | – | – | –
rotigotine citrate | white precipitate | – | – | –
rotigotine glycolate | solution | solution | solution | –
rotigotine maleate | solution | solution | solution | stayed in solution
rotigotine palmitate | solution | solution | solution | –
rotigotine pamoate | solution | solution | solution | –
rotigotine propionate | solution | solution | solution | –
rotigotine stearate | solution | solution | solution | –
